# In patent US8987195B2 (priority 2012, dated 2015):
# pEC50, pIC50: −log10 of the molar value. Read-outs that look alike come from different tables or passages of the source.
# How the values were obtained:
# [1] = target: HCV NS3/4A protease genotype 1b (Hepatitis C virus genotype 1b, UniProt P26663); experiment: HCV NS3/4A protease time-resolved fluorescence (TRF) assay, Ki against genotype 1b; type: biochemical; details: for pIC50: IC50 [gt-1b], NS3/4A protease TRF assay, genotype 1b enzyme 0.2 nM
# Method in brief: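 NS3/4A enzyme was preincubated 30 min with inhibitor in 50 mM HEPES pH 7.5, 150 mM NaCl, 15% glycerol, 0.15% Triton X-100, 10 mM DTT, 0.1% PEG 8000; 25 nM europium TRF peptide substrate added, 2.5 h at room temperature. Enzyme: 0.2 nM (1b), 0.4 nM (A156T), 0.025 nM (3a). Ki from IC50 via Cheng-Prusoff.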
# [2] = target: HCV NS3/4A protease A156T mutant (Hepatitis C virus genotype 1b, UniProt P26663, A1182T); experiment: HCV NS3/4A protease time-resolved fluorescence (TRF) assay, Ki against A156T mutant; type: biochemical; details: read-out: IC50 [gt-1b A156T]
# Method: (§1) Measuring NS3/4A Inhibitory Activity (Ki) Against Genotype 1b, Against A156T Mutants and Against Genotype 3a
# (§2) One assay for measuring inhibitory activity is HCV NS3 protease time-resolved fluorescence (TRF) assay as described below and in Mao et al., Anal. Biochem. 373:1-8, 2008 and International Patent Application Publication WO 2006/102087. A NS3 protease assay can be performed, for example, in a final volume of 20 μl assay buffer containing 50 mM HEPES, pH 7.5, 150 mM NaCl, 15% glycerol, 0.15% TRITON X-100, 10 mM DTT, and 0.1% PEG 8000. NS3 and NS4A protease is pre-incubated with various concentrations of inhibitors in DMSO for 30 min. The reaction is initiated by adding the TRF peptide substrate (final concentration 25 nM). NS3 mediated hydrolysis of the substrate was run for 2.5 hours at room temperature. Product fluorescence is detected using A Pherastar Plus plate reader (BMG) or Envision (Perkin Elmer Life and Analytical Sciences with excitation at 340 nm and emission at 615 nm using the appropriate delay time optimized for the europium fluorescence probe. Testing concentrations of different enzyme forms are selected to result in a signal to background ratio (S/B) of 10-30. IC50 values are derived using a standard four-parameter fit to the data. Ki values are derived from IC50 values using the following formula, IC50=Ki(1+[S]/KM), Eqn (1), where [S] is the concentration of substrate peptide in the reaction and KM is the Michaelis constant. See P. Gallinari et al., 38 BIOCHEM. 5620-32 (1999); P. Gallinari et al., 72 J. VIROL. 6758-69 (1998); M. Taliani et al., 240 ANAL. BIOCHEM. 60-67 (1996); Mao et al., Analytical Biochemistry 373: 1-8, 2008.
# (§3) The assay described above was run against genotype 1b at a concentration of 0.2 nM, against A156T mutant strains at a concentration of 0.4 nM, and against genotype 3a at a concentration of 0.025 nM.
# [3] = target: HCV NS3/4A protease genotype 3a (Hepatitis C virus genotype 3a, UniProt Q81495); experiment: HCV NS3/4A protease time-resolved fluorescence (TRF) assay, Ki against genotype 3a; type: biochemical
# Method: as §1, §2, §3
# HCV genotype 1b replicon = experiment: HCV replicon assay, genotype 1b replicon EC50; type: cell-based, Hepatitis C virus; details: Hepatitis C virus, read-out: EC50 [gt-1b]
# Method in brief: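 Stable neomycin-selected genotype 1b replicon cells, some carrying luciferase:Neo^r fusion, plated without G418 with a compound dilution series and incubated 24-48 h. Read-out was RNA (^32P-probe protection or TaqMan, normalized to cyclophilin A) or luciferase activity. EC50 from four-parameter fit as percent of DMSO control.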
# [4] = NS3/4A protease TRF assay, A156T mutant enzyme 0.4 nM
# [5] = NS3/4A gt-1b A156T mutant, enzyme 0.4 nM
structure (smiles),measurement,setting,value
"COc1ccc2nc(C(F)(F)F)c3c(c2c1)[C@](C)(O)C[C@]1(C[C@H]2C(=O)N[C@]4(C(=O)NS(=O)(=O)C5(C)CC5)C[C@H]4/C=C\CCCCC[C@H](NC(=O)OC4(C)CCC4)C(=O)N2C1)O3 [Example 507, 1-methylcyclobutyl [(1′R,2S,6S,12Z,13aS,14aR,16aS)-1′-hydroxy-9′-methoxy-1′-methyl-14a-{[(1-methylcyclopropyl)sulfonyl]carbamoyl}-5,16-dioxo-5′-(trifluoromethyl)-1,1′,2′,5,6,7,8,9,10,11,13a,14,14a,15,16,16a-hexadecahydrospiro[cyclopropa[e]pyrrolo[1,2-a][1,4]diazacyclopentadecine-2,3′-pyrano[2,3-c]quinolin]-6-yl]carbamate]",pIC50,[1],10.60
same,pIC50,[2]; [4],8.63
same,pIC50,[3],8.35
"COCCCOc1ccc2nc(C(F)(F)F)c3c(c2c1)CC[C@]1(C[C@H]2C(=O)N[C@]4(C(=O)NS(=O)(=O)C5(C)CC5)C[C@H]4/C=C\CCCCC[C@H](NC(=O)OC4(C)CCC4)C(=O)N2C1)O3 [Example 522, 1-methylcyclobutyl [(2R,6S,12Z,13aS,14aR,16aS)-9′-(3-methoxypropoxy)-14a-{[(1-methylcyclopropyl)sulfonyl]carbamoyl}-5,16-dioxo-5′-(trifluoromethyl)-1,1′,2′,5,6,7,8,9,10,11,13a,14,14a,15,16,16a-hexadecahydrospiro[cyclopropa[e]pyrrolo[1,2-a][1,4]diazacyclopentadecine-2,3′-pyrano[2,3-c]quinolin]-6-yl]carbamate]",pIC50,[1]; K+ salt,11.30
same,pIC50,"[2]; NS3/4A protease TRF assay, A156T mutant enzyme 0.4 nM, K+ salt",9.55
same,pIC50,[3],9.51
"Cc1nc2ccccc2c2c1O[C@]1(CC2)C[C@H]2C(=O)N[C@]3(C(=O)NS(=O)(=O)C4(C)CC4)C[C@H]3/C=C\CCCCC[C@H](NC(=O)OC3(C)CC3)C(=O)N2C1 [Example 79, 1-methylcyclopropyl [(2R,6S,12Z,13aS,14aR,16aS)-5′-methyl-14a-{[(1-methylcyclopropyl)sulfonyl]carbamoyl}-5,16-dioxo-1,1′,2′,5,6,7,8,9,10,11,13a,14,14a,15,16,16a-hexadecahydrospiro[cyclopropa[e]pyrrolo[1,2-a][1,4]diazacyclopentadecine-2,3′-pyrano[2,3-c]quinolin]-6-yl]carbamate]",pEC50,HCV genotype 1b replicon; genotype 1b replicon,8.77
same,pIC50,[2]; [5],9.82
C=C[C@@H]1C[C@]1(NC(=O)[C@@H]1C[C@]23CCc4c(c(nc5ccc(OC)cc45)CCCCC[C@@H]4C[C@H]4OC(=O)N[C@@H](C(C)(C)C)C(=O)N1C2)O3)C(=O)NS(=O)(=O)C1(C)CC1 [Example 527],pIC50,[1],10.59
same,pIC50,[3],9.17
"COc1ccc2nc(C(F)F)c3c(c2n1)CC[C@]1(C[C@H]2C(=O)N[C@]4(C(=O)NS(=O)(=O)C5(C)CC5)C[C@H]4/C=C\CCCCC[C@H](NC(=O)O[C@@H]4C[C@@H]5C[C@@H]5C4)C(=O)N2C1)O3 [Example 524, (1R,3r,5S)-bicyclo[3.1.0]hex-3-yl [(2R,6S,12Z,13aS,14aR,16aS)-6′-(difluoromethyl)-2′-methoxy-14a-{[(1-methylcyclopropyl)sulfonyl]carbamoyl}-5,16-dioxo-1,5,6,7,8,9,9′,10,10′,11,13a,14,14a,15,16,16a-hexadecahydrospiro[cyclopropa[e]pyrrolo[1,2-a][1,4]diazacyclopentadecine-2,8′-pyrano[2,3-c][1,5]naphthyridin]-6-yl]carbamate]",pIC50,[1],11.52
same,pIC50,[2]; [4],9.74
same,pIC50,[3],9.96
"Cc1nc2ccccc2c2c1O[C@@]1(CC2)C[C@H]2C(=O)N[C@]3(C(=O)NS(=O)(=O)C4(C)CC4)C[C@H]3/C=C\CCCCC[C@H](NC(=O)NC(C)(C)C)C(=O)N2C1 [Example 78, (2S,6S,12Z,13aS,14aR,16aS)-6-[(tert-butylcarbamoyl)amino]-5′-methyl-N-[(1-methylcyclopropyl)sulfonyl]-5,16-dioxo-1,1′,2′,6,7,8,9,10,11,13a,14,15,16,16a-tetradecahydrospiro[cyclopropa[e]pyrrolo[1,2-a][1,4]diazacyclopentadecine-2,3′-pyrano[2,3-c]quinoline]-14a(5H)-carboxamide]",pEC50,HCV genotype 1b replicon; genotype 1b replicon,7.07
same,pIC50,[2]; [5],8.51
"COc1ccc2nc(C(F)(F)F)c3c(c2c1)[C@H](F)C[C@]1(C[C@H]2C(=O)N[C@]4(C(=O)NS(=O)(=O)C5(C)CC5)C[C@H]4/C=C\CCCCC[C@H](NC(=O)OCC(C)(C)C)C(=O)N2C1)O3 [Example 462, 2,2-dimethylpropyl [(1′R,2S,6S,12Z,13aS,14aR,16aS)-1′-fluoro-9′-methoxy-14a-{[(1-methylcyclopropyl)sulfonyl]carbamoyl}-5,16-dioxo-5′-(trifluoromethyl)-1,1′,2′,5,6,7,8,9,10,11,13a,14,14a,15,16,16a-hexadecahydrospiro[cyclopropa[e]pyrrolo[1,2-a][1,4]diazacyclopentadecine-2,3′-pyrano[2,3-c]quinolin]-6-yl]carbamate]",pEC50,"HCV genotype 1b replicon; HCV replicon, genotype 1b",8.24
same,pIC50,[1],10.44
"Cc1ccc2nc(C(F)(F)F)c3c(c2c1)CC[C@]1(C[C@H]2C(=O)N[C@]4(C(=O)NS(=O)(=O)C5(C)CC5)C[C@H]4/C=C\CCCCC[C@H](NC(=O)OCCN4CCCC4)C(=O)N2C1)O3 [Example 416, 2-(pyrrolidin-1-yl)ethyl [(2R,6S,12Z,13aS,14aR,16aS)-9′-methyl-14a-{[(1-methylcyclopropyl)sulfonyl]carbamoyl}-5,16-dioxo-5′-(trifluoromethyl)-1,1′,2′,5,6,7,8,9,10,11,13a,14,14a,15,16,16a-hexadecahydrospiro[cyclopropa[e]pyrrolo[1,2-a][1,4]diazacyclopentadecine-2,3′-pyrano[2,3-c]quinolin]-6-yl]carbamate]",pEC50,"HCV genotype 1b replicon; HCV replicon, genotype 1b",6.57
same,pIC50,[1],9.79
"COc1ccc2nc(C(F)(F)F)c3c(c2c1)[C@H](F)C[C@]1(C[C@H]2C(=O)N[C@]4(C(=O)NS(=O)(=O)C5(C)CC5)C[C@H]4/C=C\CCCCC[C@H](NC(=O)OC(C)(C)C)C(=O)N2C1)O3 [Example 427, tert-butyl [(l′R,2S,6S,12Z,13aS,14aR,16aS)-1′-fluoro-9′-methoxy-14a-{[(1-methylcyclopropyl)sulfonyl]carbamoyl}-5,16-dioxo-5′-(trifluoromethyl)-1,1′,2′,5,6,7,8,9,10,11,13a,14,14a,15,16,16a-hexadecahydrospiro[cyclopropa[e]pyrrolo[1,2-a][1,4]diazacyclopentadecine-2,3′-pyrano[2,3-c]quinolin]-6-yl]carbamate]",pEC50,"HCV genotype 1b replicon; HCV replicon, genotype 1b",8.84
same,pIC50,[1],10.82
"COc1ccc2c3c(c(C4CC4)nc2c1)O[C@]1(CC3)C[C@H]2C(=O)N[C@]3(C(=O)NS(=O)(=O)C4(C)CC4)C[C@H]3/C=C\CCCCC[C@H](NC(=O)NC3CCCC3)C(=O)N2C1 [Example 133, (2R,6S,12Z,13aS,14aR,16aS)-6-[(cyclopentylcarbamoyl)amino]-5′-cyclopropyl-8′-methoxy-N-[(1-methylcyclopropyl)sulfonyl]-5,16-dioxo-1,1′,2′,6,7,8,9,10,11,13a,14,15,16,16a-tetradecahydrospiro[cyclopropa[e]pyrrolo[1,2-a][1,4]diazacyclopentadecine-2,3′-pyrano[2,3-c]quinoline]-14a(5H)-carboxamide]",pEC50,HCV genotype 1b replicon; genotype 1b replicon,7.76
same,IC50,"[1]; IC50 [gt-1b] (nM), NS3/4A genotype 1b, enzyme 0.2 nM",0.007 nM
